Values of other authors as cited in patent US20160256406A1, “OLIGOMERIC/POLYMERIC SILICONE FLUIDS FOR USE IN TRANSDERMAL DRUG DELIVERY SYSTEMS” (priority 2015, published 2016).

How the values were obtained:
[1] = at RT
[2] = at RT; remark: listed apart in the source

C[Si]1(C)O[Si](C)(C)O[Si](C)(C)O1 [D3, Hexamethylcyclotrisiloxane]
Octanol/Water Partition Coefficient (Log Kow) [1]: 4.5

C[Si]1(C)O[Si](C)(C)O[Si](C)(C)O[Si](C)(C)O1 [D4, Octamethylcyclotetrasiloxane]
Octanol/Water Partition Coefficient (Log Kow) [1]: 5.1

C[Si]1(C)O[Si](C)(C)O[Si](C)(C)O[Si](C)(C)O[Si](C)(C)O1 [D5, Decamethylcyclopentasiloxane]
Octanol/Water Partition Coefficient (Log Kow) [1]: 5.2-5.7
Water Solubility [2]: 0.017 to 0.050 µg/mL

C[Si]1(C)O[Si](C)(C)O[Si](C)(C)O[Si](C)(C)O[Si](C)(C)O[Si](C)(C)O1 [D6, Dodecamethylcyclohexasiloxane]
Octanol/Water Partition Coefficient (Log Kow) [1]: 6.3
Water Solubility [2]: 0.005 µg/mL

C[Si](C)(C)O[Si](C)(C)C [L2, Hexamethyldisiloxane]
Octanol/Water Partition Coefficient (Log Kow) [1]: 4.2

C[Si](C)(C)O[Si](C)(C)O[Si](C)(C)C [L3, Octamethyltrisiloxane]
Octanol/Water Partition Coefficient (Log Kow) [1]: 4.8

C[Si](C)(C)O[Si](C)(C)O[Si](C)(C)O[Si](C)(C)C [L4, Decamethyltetrasiloxane]
Octanol/Water Partition Coefficient (Log Kow) [1]: 5.4

C[Si](C)(C)O[Si](C)(C)O[Si](C)(C)O[Si](C)(C)O[Si](C)(C)C [L5, Dodecamethylpentasiloxane]
Octanol/Water Partition Coefficient (Log Kow) [1]: 6.0
